Entries after “also recorded” stand apart in the source; their conditions may differ. Each block holds one molecule with its values, some of them ahead of it.
How the values were obtained:
RAW 264.7 cells = assay: MTT assay, cell viability after 24 h incubation; conditions: for cell viability: RAW 264.7 cells, 100 μM loading concentration, 24 h incubation
Experimental: Cell culture: Murine macrophages (RAW 264.7 cells) that were obtained from the American Type Culture Collection (ATCC, Rockville, MD, USA) were utilized for cell culture experiments.
After 24 h incubation, each well was added with MTT (5 mg/ml in PBS, 10 μL) and then incubated for 4 h. The media from each well was pipetted out, formazan crystals deposited on the plate were dissolved in 200 μL of dimethyl sulfoxide and the absorbance of each well was measured using a microplate reader at 560 nm.
All the samples were analyzed in quadruplicates. The percentage cell viability was then calculated using the formula: % cell viability=(OD of treated sample/OD of the untreated sample)*100.

Solubility = conditions: H2O
[1] = UV light photobleaching / photostability in solution; format: physicochemical
Experimental: Samples were irradiated with a 18 W LED UV flashlight (395 nm, Hinmay super bright LED). They were immersed in a 23±1° C. water bath during irradiation periods. (FIG. 5A-5B)

[2] = Absolute fluorescence quantum yield; format: physicochemical; conditions: in H2O
Experimental: (§1) UV/Vis Absorption spectra were recorded using a UV-3600 Shimadzu spectrophotometer. Steady-state emission spectra were acquired using HORIBA Nanolog spectrofluorimeter equipped with an integrating sphere for absolute photoluminescence quantum yield determination and time-correlated single-photon counting (TCSPC) module for emission decays of 4·2Cl in H2O. The time-resolved fluorescence (TRF) measurement of 6·4Cl in H2O was carried out with a streak camera system (Hamamatsu C4334 Streakscope).

[3] = Fluorescence at different pH and in serum; format: physicochemical
Experimental: as §1

RAW 264.7 macrophages [4] = assay: Calcein AM cell viability assay; format: cell-based, Murine; conditions: RAW 264.7 cells, 24 h incubation, 1.56-100 μM
Experimental: After 24 h of incubation, cells were washed twice with PBS, added with Calcein AM (1 μM, 100 μL in PBS) to each well and then incubated for 1 h in the dark. […] The measured fluorescence intensity (FI) is proportional to the number of viable cells.

RAW 264.7 macrophages [5] = assay: Live cell confocal microscopy; format: cell-based, Murine; conditions: for fluorescence inside cells after incubation: RAW 264.7 cells, 4 h incubation (6·4Cl 20 μM in PBS); for photobleaching inside cells under imaging conditions: blue laser excitation
Experimental: RAW 264.7 macrophages (1×10^5 cells/mL, 475 μL) were plated in each well of a 4 well p-slide (ibidi cell focus) and cultured overnight. […] After incubation, cells were washed with phenol free DMEM and stained with LysoTracker green (lysosome stain) or SYTO nuclei (nuclear stain) at 1:10,000 dilutions. Controls used were cells added with only stains, cells only and cells with materials only. Plated cells were imaged within a humidified chamber using a 100× oil-immersion objective on an SP5 Leica Confocal Microscope using HyD detectors and lasers: 405 nm diode laser for material, 561 nm HeNe laser for Lysotracker green, and 633 nm HeNe laser for SYTO 61.

RAW 264.7 macrophages [6] = assay: Phototoxicity studies (irradiation, then Calcein AM viability); format: cell-based, Murine; conditions: RAW 264.7 cells, different concentrations, light 410 nm, 25 mW, 15 min
Experimental: After 24 h incubation, wells were washed with PBS, added with 100 μL of DMEM and immediately irradiated with visible light using Max-303 Xenon Light Source (410 nm, Asahi Spectra) at a light intensity of […] for 15 min. Following irradiation cells were incubated overnight and viability was measured using Calcein AM as described above.

SMILES: C[n+]1ccc(-c2cc[n+](C)cc2)cc1 [paraquat, dimethyl viologen]
cell viability (RAW 264.7 cells): ~63%

water solubility (Solubility): highly water-soluble
photostability in H2O ([1]; H2O, several months under natural daylight): extremely photostable
loss of absorbance intensity on UV irradiation (photobleaching) ([1]; UV flashlight 18 W, 395 nm, 60 min): a little loss of absorbance intensity
fluorescence quantum yield ΦF [2]: 1.00
fluorescence quantum yield ΦF ([2]; listed as 6^4+): unity
fluorescence in serum compared with water ([3]; 10% Fetal bovine serum): slightly lower fluorescence intensity
change of fluorescence characteristics with pH ([3]; pH=1 to 7): without any change
SMILES: c1cc2ccc1C[n+]1ccc(cc1)-c1ccc(cc1)-c1cc[n+](cc1)Cc1ccc(cc1)C[n+]1ccc(cc1)-c1nc3sc(nc3s1)-c1cc[n+](cc1)C2 [6·4Cl, ExTz·4Cl]
cell viability by Calcein AM versus MTT result (RAW 264.7 macrophages [4]): confirmed
fluorescence inside cells after incubation (RAW 264.7 macrophages [5]): brilliant blue emission
photobleaching inside cells under imaging conditions (RAW 264.7 macrophages [5]; RAW 264.7 macrophages): without any hint of photobleaching
cellular uptake (RAW 264.7 macrophages [5]; RAW 264.7 macrophages, confocal microscopy, listed as 6^4+): efficiently taken up
fluorescence brightness inside the cells relative to reference 4^2+ (RAW 264.7 macrophages [5]; live cells): six times brighter
cellular localization (RAW 264.7 macrophages [5]; living macrophages, co-incubation with LysoTracker green): enters the lysosomes
phototoxicity (RAW 264.7 macrophages [6]): no phototoxicity
cytotoxicity (in words) (RAW 264.7 cells; RAW 264.7 macrophages, loading concentration as high as 100 μM): non-cytotoxic; also recorded: less cytotoxic

SMILES: c1cc2ccc1C[n+]1ccc(cc1)-c1cc[n+](cc1)Cc1ccc(cc1)C[n+]1ccc(cc1)-c1cc[n+](cc1)C2 [BlueBox, BlueBox·4Cl]
cell viability (RAW 264.7 cells): over 96%

SMILES: C[n+]1ccc(-c2ccc(-c3cc[n+](C)cc3)cc2)cc1 [2·2Cl, Me2ExBIPY·2Cl]
cell viability (RAW 264.7 cells): 68%

SMILES: C[n+]1ccc(-c2nc3sc(-c4cc[n+](C)cc4)nc3s2)cc1 [4·2Cl, 4,4′-(Thiazolo[5,4-d]thiazole-2,5-diyl)bis(1-methylpyridinium), reference compound]
water solubility (Solubility): Water soluble
fluorescence quantum yield ΦF [2]: 0.95
fluorescence inside cells after incubation (RAW 264.7 macrophages [5]): only a little fluorescence
fluorescence inside cells after incubation (RAW 264.7 macrophages [5]; listed as Me2TzBIPY·2Cl): very little fluorescence
photobleaching inside cells under imaging conditions (RAW 264.7 macrophages [5]; RAW 264.7 macrophages): quenched completely
time until fluorescence inside the cells is quenched (RAW 264.7 macrophages [5]; laser irradiation under imaging conditions): ≤ 3 s
cell viability (RAW 264.7 cells): ~75%

Source: patent US11904025B2, “Cyclophanes for live-cell imaging” (Northwestern University, priority 2018, dated 2024)
